Data set [1] deals with T1, Interferon regulatory factor 4 (Homo sapiens, UniProt Q15306).
T1 sequence (Q15306 whole entry): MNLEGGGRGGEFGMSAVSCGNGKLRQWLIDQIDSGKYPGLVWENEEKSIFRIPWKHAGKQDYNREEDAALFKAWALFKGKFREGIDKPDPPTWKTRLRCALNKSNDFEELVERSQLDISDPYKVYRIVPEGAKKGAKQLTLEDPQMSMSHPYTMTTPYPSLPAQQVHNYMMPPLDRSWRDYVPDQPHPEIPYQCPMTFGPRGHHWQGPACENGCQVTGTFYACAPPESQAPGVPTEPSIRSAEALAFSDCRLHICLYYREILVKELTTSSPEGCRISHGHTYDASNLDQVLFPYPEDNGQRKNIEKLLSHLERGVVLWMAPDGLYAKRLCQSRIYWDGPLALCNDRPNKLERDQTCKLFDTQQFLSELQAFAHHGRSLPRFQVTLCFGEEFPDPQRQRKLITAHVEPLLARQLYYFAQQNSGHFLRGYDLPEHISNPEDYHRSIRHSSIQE
Put plainly: Inhibition of IRF4 (unknown origin) incubated for 1 hr by fluorescence polarization assay. On the technique in general: Polarisation of emitted light reports the rotation of a fluorescent probe.

The subject of data set [2] is NCI-H929. Description: Antiproliferative activity against human NCI-H929 cells assessed as inhibition of cell viability measured after 72 hrs by MTS assay. Conditions: NCI-H929, 72 h. The data set is classed as functional, cell-based. (Formazan colour is commonly taken as a measure of viable cells.)
Data set [3] in a line: Antiproliferative activity against human MM1.R cells assessed as inhibition of cell viability measured after 72 hrs by MTS assay. The data set is classed as functional, cell-based. Conditions: MM.1R.
Another data set has as its system RPMI-8226. Description: Antiproliferative activity against human RPMI-8226 cells assessed as inhibition of cell viability measured after 72 hrs by MTS assay. The data set is classed as functional, cell-based. Conditions: RPMI-8226, 72 h.
Data set [4] can be described thus: Antiproliferative activity against human HAF cells assessed as inhibition of cell viability measured after 72 hrs by MTS assay. The data set is classed as toxicity, cell-based.
A short description of data set [5]: Antiproliferative activity against human HaCaT cells assessed as inhibition of cell viability measured after 72 hrs by MTS assay. Format: toxicity, cell-based.
Data set [6] in a line: Selectivity ratio IC50 for human RPMI-8226 cells to IC50 for human NCI-H929 cells. Format: toxicity.
Data set [7] is described as follows: Selectivity ratio IC50 for human RPMI-8226 cells to IC50 for human MM1.R cells. Format: toxicity.
Data set [8] in a line: Toxicity in Balb/C nude mouse assessed as change in body weight at 25 mg/kg administered once daily and measured every three days for 34 days. Conditions: in vivo, 816 h, time 34 day. The data set is classed as organism-based.
The nature of data set [9]: Toxicity in Balb/C nude mouse assessed as changes in main organ at 25 mg/kg administered once daily and measured every three days for 34 days by H and E staining based analysis. The data set is classed as organism-based. Conditions: in vivo, 816 h, time 34 day.
Data set [10] can be described thus: Toxicity in Balb/C nude mouse assessed as side effects at 25 mg/kg administered once daily and measured every three days for 34 days by H and E staining based analysis. The data set is classed as organism-based. Conditions: in vivo, 816 h, time 34 day.
The subject of data set [11] is NCI-H929. Put plainly: Antitumor activity against human NCI-H929 cells xenografted in Balb/C nude mouse model assessed as reduction in Ki67 expression at 25 mg/kg by immunohistochemical staining based analysis. Format: functional, organism-based. In general terms: In xenograft studies the graft and the host belong to different species.
Data set [12] has as its system NCI-H929. Description: Antitumor activity against human NCI-H929 cells xenografted in Balb/C nude mouse model assessed as inhibition of Akt phosphorylation level at 25 mg/kg by Western blot analysis. The data set is classed as functional, organism-based.
In data set [13] the test system is NCI-H929. Description: Antitumor activity against human NCI-H929 cells xenografted in Balb/C nude mouse model assessed as inhibition of ERK phosphorylation level at 25 mg/kg by Western blot analysis. The data set is classed as functional, organism-based.
Data set [14] relates to NCI-H929. Description: Antitumor activity against human NCI-H929 cells xenografted in Balb/C nude mouse model assessed as increase in gammaH2AX expression at 25 mg/kg by Western blot analysis. The data set is classed as functional, organism-based.
The subject of data set [15] is NCI-H929. Put plainly: Antitumor activity against human NCI-H929 cells xenografted in Balb/C nude mouse model assessed as inhibition of inhibition of cyclin D1 expression at 25 mg/kg by Western blot analysis. Format: functional, organism-based.
The subject of data set [16] is NCI-H929. Description: Antitumor activity against human NCI-H929 cells xenografted in Balb/C nude mouse model assessed as inhibition of […] expression at 25 mg/kg by Western blot analysis. The data set is classed as functional, organism-based.

Calls of active or inactive are those of the source. No cut-off for these calls is given here.

Usually IC50 stands for the concentration that gives 50% inhibition. `C[C@H](C(=O)n1ccnc1)[C@H]1CC[C@H]2[C@@H]3C(=O)C=C4C(C)(C)C(=O)C(C#N)=C[C@]4(C)[C@H]3CC[C@]12C`: the IC50 in data set [1] was 3.88 µM; with NCI-H929 [2] it was 2.57 µM; in data set [3], 4.46 µM; in the data set with RPMI-8226, 7.65 µM. Besides, the IC50 at 72 h in [4] and in data set [5] was more than 100 µM throughout. For the same molecule, the “Ratio IC50” value in [6] was 3; in data set [7], 1.7.

As to `Cc1ccc(NC(=O)[C@@H](C)[C@H]2CC[C@H]3[C@@H]4C(=O)C=C5C(C)(C)C(=O)C(C#N)=C[C@]5(C)[C@H]4CC[C@]23C)cc1`, the IC50 in data set [1] turned out to be 3.65 µM; with NCI-H929 [2] it was 0.22 µM; in data set [3] it was 0.27 µM; with RPMI-8226, 0.26 µM. Further, the IC50 at 72 h in data set [4] and in data set [5] was more than 100 µM throughout. Besides, the figures for the “Ratio IC50” value in [6] and in [7] were 1.2 and 1, respectively.

For the molecule `C[C@H](C(=O)Nc1ccc(O)cc1)[C@H]1CC[C@H]2[C@@H]3C(=O)C=C4C(C)(C)C(=O)C(C#N)=C[C@]4(C)[C@H]3CC[C@]12C`, the concentration for half-maximal inhibition (IC50) in data set [1] was 3.52 µM; in the data set on NCI-H929 [2], 0.49 µM; in data set [3] it was 0.57 µM; in the data set on RPMI-8226 it was 2.45 µM. The IC50 at 72 h in data set [4] and in data set [5] was more than 100 µM each time. Also, the figures for the “Ratio IC50” value in data set [6] and in [7] were 5 and 4.3, respectively.

Take `C[C@H](C(=O)n1cccn1)[C@H]1CC[C@H]2[C@@H]3C(=O)C=C4C(C)(C)C(=O)C(C#N)=C[C@]4(C)[C@H]3CC[C@]12C`: the IC50 came to 3.79 µM in [1], 0.06 µM with NCI-H929 [2], 0.24 µM in data set [3] and 0.34 µM with RPMI-8226. Besides, the IC50 at 72 h in data set [4] and in data set [5] was more than 100 µM in each case. In addition, the “Ratio IC50” value was 5.7 in [6] and 1.4 in data set [7].

Regarding `C[C@H](C(=O)Nc1ccccc1)[C@H]1CC[C@H]2[C@@H]3C(=O)C=C4C(C)(C)C(=O)C(C#N)=C[C@]4(C)[C@H]3CC[C@]12C`, the IC50 in [1] was 4.86 µM; in the data set with NCI-H929 [2] it was 0.7 µM; in data set [3], 0.11 µM; in the data set with RPMI-8226, 0.72 µM. Moreover, the IC50 at 72 h in data set [4] and in [5] was more than 100 µM each time. Also, the “Ratio IC50” value in [6] is 1; in data set [7], 6.5.

`C[C@H](C(=O)Nc1ccc2cc[nH]c2c1)[C@H]1CC[C@H]2[C@@H]3C(=O)C=C4C(C)(C)C(=O)C(C#N)=C[C@]4(C)[C@H]3CC[C@]12C` gave an IC50 in [1] of 11.6 µM.

On to `C[C@H](C(=O)O)[C@H]1CC[C@H]2[C@@H]3C(=O)C=C4C(C)(C)C(=O)C(C#N)=C[C@]4(C)[C@H]3CC[C@]12C`, for which the IC50 in [1] was found to be 13.5 µM; in the data set on NCI-H929 [2], 2.63 µM; in data set [3], 3.16 µM; in the data set on RPMI-8226, 4.25 µM. The IC50 at 72 h in [4] and in [5] was more than 100 µM in each case. Also, the “Ratio IC50” value in data set [6] came to 1.6; in [7] it was 1.2.

The molecule `C[C@H](C(=O)O)[C@H]1CC[C@H]2[C@@H]3C(=O)C=C4C(C)(C)C(=O)C=C[C@]4(C)[C@H]3CC[C@]12C` came in with an IC50 in [1] of more than 20 µM.

`C[C@H](CO)[C@H]1CC[C@H]2[C@@H]3CCC4=CC(=O)CC[C@]4(C)[C@H]3CC[C@]12C` returned an IC50 in data set [1] of more than 20 µM.

Consider `Nc1cccc2c1CN(C1CCC(=O)NC1=O)C2=O` (stereo not drawn) [LENALIDOMIDE], for which the Activity result in data set [8], in [9] and in [10] was “Non-toxic” in each case. The result in the data set on NCI-H929 [11] was inactive. Moreover, the outcome with NCI-H929 [12], in the data set with NCI-H929 [13], with NCI-H929 [14], in the data set on NCI-H929 [15] and in the data set on NCI-H929 [16] was Active. Besides, the IC50 in data set [1] is more than 20 µM; in the data set with NCI-H929 [2], 2.39 µM; in [3], 4.52 µM; in the data set with RPMI-8226, 50.2 µM. Further, the IC50 at 72 h in data set [4] and in data set [5] was more than 100 µM each time.

In data set [1], `C[C@H](CO)[C@H]1CC[C@H]2[C@@H]3C(=O)C=C4C(C)(C)C(=O)C(C#N)=C[C@]4(C)[C@H]3CC[C@]12C` returned an IC50 of more than 20 µM.

As to `C[C@H](C(=O)OC1CCCCC1)[C@H]1CC[C@H]2[C@@H]3C(=O)C=C4C(C)(C)C(=O)C(C#N)=C[C@]4(C)[C@H]3CC[C@]12C`, the IC50 in data set [1] is more than 20 µM.

Source of the values: ChEMBL document CHEMBL6121019, “Design, synthesis and biological evaluation of bisnoralcohol derivatives as novel IRF4 inhibitors for the treatment of multiple myeloma” (Eur J Med Chem, 2025).
